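Method: 48-hour compound exposure of cells in 96-well plates, five concentrations, linear interpolation of endpoints. GI50 is the concentration that inhibits growth by half.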 Active and inactive are the calls of the source. Rule as the data show it: active = GI50 up to about 1.1 µM and inactive = higher.
What was measured:
Test in all cases: DTP human tumour cell line panel, 48 h
[1] = test system: 786-0
[2] = test system: A498
[3] = test system: A549
[4] = test system: ACHN
[5] = test system: BT-549
[6] = test system: CAKI-1
[7] = test system: CCRF-CEM
[8] = test system: COLO 205
[9] = test system: DU-145
[10] = test system: EKVX
[11] = test system: HCC 2998
[12] = test system: HCT-116
[13] = test system: HCT-15
[14] = test system: HL-60
[15] = test system: HOP-62
[16] = test system: HOP-92
[17] = test system: HT-29
[18] = test system: Hs-578T
[19] = test system: IGROV-1
[20] = test system: K562
[21] = test system: KM12
[22] = test system: LOX IMVI
[23] = test system: M14
[24] = test system: MCF7
[25] = test system: MDA-MB-231
[26] = test system: MDA-MB-435
[27] = test system: MOLT-4
[28] = test system: Malme-3M
[29] = test system: NCI-H226
[30] = test system: NCI-H23
[31] = test system: NCI-H460
[32] = test system: NCI-H522
[33] = test system: NCI/ADR-RES
[34] = test system: OVCAR-3
[35] = test system: OVCAR-4
[36] = test system: OVCAR-5
[37] = test system: OVCAR-8
[38] = test system: PC-3
[39] = test system: RPMI-8226
[40] = test system: RXF 393
[41] = test system: SF-268
[42] = test system: SF-295
[43] = test system: SK-MEL-28
[44] = test system: SK-MEL-2
[45] = test system: SK-MEL-5
[46] = test system: SK-OV-3
[47] = test system: SN12C
[48] = test system: SNB-19
[49] = test system: SNB-75
[50] = test system: SR
[51] = test system: SW-620
[52] = test system: T47D
[53] = test system: U-251
[54] = test system: UACC-257
[55] = test system: UACC-62
[56] = test system: UO-31

Which results are given for `CC1(C)CCCCCC(C)(CCCO)C1=O` (stereo unspecified)?
GI50 [1]: > 100 µM (inactive); GI50 [2]: > 100 µM (inactive); GI50 [3]: > 100 µM (inactive); GI50 [4]: > 100 µM (inactive); GI50 [5]: > 100 µM (inactive); GI50 [6]: > 100 µM (inactive); GI50 [7]: > 100 µM (inactive); GI50 [8]: > 100 µM (inactive); GI50 [9]: > 100 µM (inactive); GI50 [10]: > 100 µM (inactive); GI50 [11]: > 100 µM (inactive); GI50 [12]: > 100 µM (inactive); GI50 [13]: > 100 µM; GI50 [14]: > 100 µM (inactive); GI50 [15]: > 100 µM (inactive); GI50 [16]: > 100 µM (inactive); GI50 [17]: > 100 µM (inactive); GI50 [18]: > 100 µM (inactive); GI50 [19]: > 100 µM (inactive); GI50 [20]: > 100 µM (inactive); GI50 [21]: > 100 µM (inactive); GI50 [22]: > 100 µM (inactive); GI50 [23]: > 100 µM (inactive); GI50 [24]: > 100 µM (inactive); GI50 [25]: > 100 µM (inactive); GI50 [26]: > 100 µM (inactive); GI50 [27]: > 100 µM (inactive); GI50 [28]: > 100 µM (inactive); GI50 [29]: > 100 µM (inactive); GI50 [30]: > 100 µM (inactive); GI50 [31]: > 100 µM (inactive); GI50 [32]: > 100 µM (inactive); GI50 [33]: > 100 µM (inactive); GI50 [34]: > 100 µM (inactive); GI50 [35]: > 100 µM (inactive); GI50 [36]: > 100 µM (inactive); GI50 [37]: > 100 µM (inactive); GI50 [38]: > 100 µM (inactive); GI50 [39]: > 100 µM (inactive); GI50 [40]: > 100 µM (inactive); GI50 [41]: > 100 µM (inactive); GI50 [42]: > 100 µM (inactive); GI50 [43]: > 100 µM (inactive); GI50 [44]: > 100 µM (inactive); GI50 [45]: > 100 µM (inactive); GI50 [46]: > 100 µM (inactive); GI50 [47]: > 100 µM (inactive); GI50 [48]: > 100 µM (inactive); GI50 [49]: > 100 µM (inactive); GI50 [50]: > 100 µM (inactive); GI50 [51]: > 100 µM (inactive); GI50 [52]: > 100 µM (inactive); GI50 [53]: > 100 µM (inactive); GI50 [54]: > 100 µM (inactive); GI50 [55]: > 100 µM (inactive); GI50 [56]: > 100 µM (inactive)
